Measured values reported in patent US4241051A, “Calcitonin” (priority 1977, dated 1980).

Tested on: bPTH-stimulated resorption
Test: Calcitonin ear drops in 45Ca-labelled guinea pigs; 45Ca release from explanted ossicles after bPTH stimulation
Type: in vivo
Details: for antagonism by calcitonin of the bPTH-stimulated resorption (45Ca release into bathing medium): 40 hour reading
Experimental: A large dose of radio calcium (400 μCi of ^45 Ca) is administered intravenously to each of eight guinea pigs to label their skeletons. On the third, fourth and fifth days after administration of the radiocalcium each of the guinea pigs receives ear drops containing a solution of synthetic salmon calcitonin (Armour Pharmaceutical Co.) dissolved in dimethylsulphoxide (0.1 ml of solution containing 25μg of calcitonin). Four of the animals receive calcitonin to the right ear and four to the left ear, 0.1 ml of dimethylsulphoxide being given to the other ear in each case as a control.
One hour before sacrifice on the fifth day three animals from each group of four are treated intravenously with 500 MRC units of bovine parathyroid hormone (bPTH; 2000U/mg) in diluted plasma to stimulate bone resorption, the remaining animal in each group receiving diluted plasma only as a control. After sacrifice in alternation by ether anaesthesia, the ossicles of each ear of each animal are removed by the opening the temporal bone from its lower surface, remote from the external ear to which calcitonin has been applied. They are explanted onto a filter disc (Millipore HA) in a tissue culture dish containing 1 ml of the Fitton-Jackson modification of BGJ (Gibco-Biocult Ltd) with added ascorbic acid (150 μg/ml), streptomycin (5 mg/100 ml) and penicillin (5000U/100 ml), gassed with 93% air, 7% carbon dioxide. The bathing medium is withdrawn from each dish after 20, 40 and 60 hours incubation in an airtight container at 37° C. and is replaced with freshly gassed medium. After addition to 4 ml aliquots of scintillator (Packard Instagel) the samples are subjected to liquid scintillation spectrometry (Packard 2425 set to the ^14 C channel).
In a variation of the procedure described above, the calcitonin is administered in 0.1% w/v aqueous sodium dioctyl sulphosuccinate rather than in dimethyl sulphoxide in two separate experiments, the whole of the ossicles being explanted as described above in the first case and only the stapes being explanted in the second. In these two experiments some variation is made in the radiolabelling procedure, only 200 μCi of ^45 Ca being given in the first case but intraperitoneally rather than intravenously to facilitate the labelling of bone and 400 μCi of ^45 Ca being given in the second case, also intraperitoneally, but with omission of the methyl red from the BGJ culture medium as this causes considerable quenching.
A group of twenty-four guinea pigs is treated as described in Example 1 to effect labelling of their skeletons, a dose of 400 μCi of ^45 Ca being given intraperitoneally. The animals are then divided into three groups which are treated as described in Example 1 with 0.1 ml of a solution of concentration 27.8 μg/ml, 83.3 μg/ml or 250 μg/ml of synthetic salmon calcitonin in 0.1% w/v aqueous sodium dioctyl sulphosuccinate. The subsequent treatment of the animals follows that of Example 1, the methyl red being omitted from the BGJ culture medium.

Substance: synthetic salmon calcitonin
- level of effect on 45Ca release from explanted ossicles (Example 2, 0.1 ml ear drops of 27.8 μg/ml in 0.1% w/v aqueous sodium dioctyl sulphosuccinate): little effect
- level of effect on 45Ca release from explanted ossicles (Example 2, 0.1 ml ear drops of 83.3 μg/ml in 0.1% w/v aqueous sodium dioctyl sulphosuccinate, compared with 250 μg/ml): very similar level of effect
- level of effect on 45Ca release from explanted ossicles (Example 2, 0.1 ml ear drops of 250 μg/ml in 0.1% w/v aqueous sodium dioctyl sulphosuccinate, compared with 83.3 μg/ml): very similar level of effect
- duration of effect after application in vivo (Example 2, bathing medium examined after 20, 40 and 60 hours of culture): effect of extended duration
- antagonism by calcitonin of the bPTH-stimulated resorption (45Ca release into bathing medium) (ear drops 0.1 ml with 25 μg calcitonin in dimethylsulphoxide, days 3-5, whole of the ossicles explanted, p<0.01): highly significant
- antagonism by calcitonin of the bPTH-stimulated resorption (45Ca release into bathing medium) (ear drops with calcitonin in 0.1% w/v aqueous sodium dioctyl sulphosuccinate, only the stapes explanted, p<0.005): highly significant
- antagonism by calcitonin of the bPTH-stimulated resorption (45Ca release into bathing medium) (ear drops with calcitonin in 0.1% w/v aqueous sodium dioctyl sulphosuccinate, whole of the ossicles explanted, p<0.01): highly significant
- concentration level generally required to achieve an adequate effect (topical composition, calcitonin with a potency of about 4500 International units per mg): greater than 25 micrograms per ml
